Patent US6849455B1, “Enhanced recovery of transformed cells” (New York University, priority 2000, dated 2005)

What was measured:
C600 [1] = test: Transformation of scL and scH RepFIC plasmid DNAs into C600; assay type: cell-based, E. coli; settings: supplement added after electroporation and/or during selection
Experimental: The package consists of homocysteine, ferrous sulfate, and magnesium sulfate.
To ascertain that the scL phenotype was heritable under all circumstances and viable, scL DNA was transferred into C600 by electroporation. Selection of transformants was carried out without additional supplements or in the presence of cysteine or glutathione. […] Thus, although an additional source of cysteine is still required under the conditions of this transformation, cysteine becomes toxic at the concentration that was previously used.
In order to identify the contribution of co-transmitted molecules that are easily removed, scL DNA was in vitro salt-stripped before being transformed. […] Plasmid preparations are associated with several proteins, of about 32 kda in size, which could be the dam-methyltransferase (GenBank accession no. J01600). Therefore, it is possible that the dam-methyltransferase is one significant component removed by the salt treatment.
The methylation reaction per se could have become limiting as a result of the removal of methyltransferase, and activation of the biosynthesis of S-adenosylmethionine (SAM), the methyl donor in the methylation reaction, could help overcome low enzyme levels in the cell. Homocysteine is a known co-inducer of the MetR regulon (Schell, 1993), and thus activates the synthesis of SAM (Palmer and Marinus, 1994). […]

E. coli = test: Supplements to rich/selective media in RepFIC transformations; assay type: cell-based; settings: for effective as substitute for the L-cysteine effect in RepFIC transformations: supplement to rich media, glutathione 300 micrograms per ml; for increase in the number of transformants: supplement added to the selective medium
C600 hosts = settings: additives: cysteine, cystine, or glutathione
Excerpt: Single colonies that were normal in appearance, selected after transformation of C600 hosts in the presence of cysteine (Table 1, row 1) were resuspended in liquid medium. Aliquots were streaked onto spectinomycin-containing plates and spectinomycin plates with the following additives: cysteine, cystine, or glutathione.
Single colonies selected after transformation of C600 hosts in the presence of cysteine (Table 1, row 1) were initially difficult to grow.

C600 [2] = test: Plasmid yield after overnight growth with glycerol as carbon source; assay type: cell-based, E. coli; settings: homocysteine and ferrous sulfate supplements
Experimental: (§1) Glycerol, when used as a carbon source, avoids catabolite repression. The plasmid was prepared from the following hosts grown overnight with the supplements homocysteine and ferrous sulfate, using glycerol as a carbon source: C600 containing the non-imprinted plasmid, the lon host Δlon-510 (containing the imprinted scL plasmid), and C600 containing the imprinted scL plasmid. […] One interpretation of the difference seen between lanes 3-4 and 5-6 is that when Lon is present (C600) and there is no catabolite repression, the post-replicative steps occur at a sufficient rate to adjust for the recovery of the final product, scH plasmid. When Lon is absent, stimulation of steps occurring after normal Lon-processing are ineffective because the substrate for these steps is insufficient.

lon host Δlon-510 = test: as above; assay type: cell-based, E. coli; settings: homocysteine and ferrous sulfate supplements
Experimental: as §1

Molecule: N[C@@H](CCS)C(=O)O [Homocysteine, homocysteine]
- recovery of transformants with highly purified (salt-stripped) transforming DNA (C600 [1]): rescued the transforming ability

Molecule: CC(=O)NC(CS)C(=O)O (racemic) [-acetyl-D,L-cysteine, N-acetyl-D,L-cysteine]
- effective as substitute for the L-cysteine effect in RepFIC transformations (E. coli): None of these was effective

Molecule: N[C@@H](CS(=O)(=O)O)C(=O)O [L0cysteic acid, L-cysteic acid]
- effective as substitute for the L-cysteine effect in RepFIC transformations (E. coli): None of these was effective

Molecule: CSCC[C@H](N)C(=O)O [L-methionine]
- effective as substitute for the L-cysteine effect in RepFIC transformations (E. coli): None of these was effective

Molecule: N=C(N)NCCC[C@H](N)C(=O)O [L-arginine]
- effective as substitute for the L-cysteine effect in RepFIC transformations (E. coli): None of these was effective

Molecule: O=S(=O)([O-])[O-].[Mg+2] [Magnesium sulfate, magnesium sulfate]
- increase in the transformation efficiency (E. coli; supplement added after electroporation, RepFIC): no effect
- increase in the number of transformants (E. coli; RepFIC): no effect

Molecule: glutamyl-cysteinylglycine [glutathione]
- number of colonies obtained (E. coli; glutathione 300 micrograms per ml compared to 400 micrograms cysteine per ml): the same as with cysteine
- effective as substitute for the L-cysteine effect in RepFIC transformations (E. coli): effective
- growth of cysteine-selected transformants on spectinomycin plates with additive (C600 hosts): only grew on the glutathione-supplemented plates

Molecule: N[C@@H](CS)C(=O)O [L-cysteine]
- recovery of transformants with highly purified (salt-stripped) transforming DNA (C600 [1]): no longer helped in the recovery of transformants
- optimal concentration of cysteine (E. coli; selective medium, RepFIC transformation): 400 micrograms per ml
- increase in the number of transformants (E. coli; RepFIC): ~10^3 fold

Molecule: N[C@@H](CSSC[C@H](N)C(=O)O)C(=O)O [L-cystine]
- effective as substitute for the L-cysteine effect in RepFIC transformations (E. coli): None of these was effective

Molecule: OCC(O)CO [glycerol]
- increase in yield of plasmid (C600 [2]): 5 to 10 fold
- increase in yield of plasmid (lon host Δlon-510): 5 to 10 fold
